Measured values as given in ChEMBL document CHEMBL5370604, “Identification of Micrococcin P2-Derivatives as Antibiotic Candidates against Two Gram-Positive Pathogens” (J Med Chem, 2023).
Converted amounts (≈) assume the structure as drawn. The source made the active and inactive calls. The rule behind the calls is not given here.

Tests used:
Staphylococcus aureus [1] = assay: Antibacterial activity against Staphylococcus aureus ATCC 4330 assessed as inhibition of bacterial growth measured after 16 to 24 hrs by CLSI based broth dilution method; assay type: functional; conditions: time 16-24 hrs
Staphylococcus aureus [2] = assay: Antibacterial activity against clinical isolate methicillin-resistant Staphylococcus aureus assessed as log reduction in CFU/ml at 16 times of MIC measured after 24 hrs by time killing analysis; assay type: functional
Staphylococcus aureus [3] = assay: Antibacterial activity against methicillin-resistant Staphylococcus aureus assessed as inhibition of bacterial growth measured after 16 to 24 hrs by CLSI based broth dilution method; assay type: functional; conditions: time 16-24 hrs
[4] = Effective permeability of the compound at pH 5.5 at 25 uM incubated for 5 hrs by skin PAMPA analysis; assay type: ADME; conditions: pH 5.5, 5 h
Clostridioides difficile [5] = assay: Antibacterial activity against Clostridioides difficile ATCC 43255 assessed as inhibition of bacterial growth measured after 24 hrs by CLSI based broth dilution method; assay type: functional
Staphylococcus aureus [6] = assay: (§1) In vivo antibacterial activity against methicillin-resistant Staphylococcus aureus KCCM 40511 ATCC 33593 infected in soft-skin tissue BALB/c mouse infection model assessed as reduction in total number of bacteria in wound area treated as ointment administered twice at 6 and 12 hrs and measured after 24 hrs relative to mupirocin; assay type: functional
[7] = Effective permeability of the compound at pH 7.4 at 25 uM incubated for 5 hrs by skin PAMPA analysis; assay type: ADME; conditions: pH 7.4, 5 h
[8] = Aqueous kinetic solubility of the compound at pH 7.4 incubated for 2 hrs by UPLC-MS analysis; assay type: physicochemical; conditions: read-out: Kinetic_solubility
Clostridioides difficile [9] = assay: Antibacterial activity against Clostridioides difficile NT/ST221/A+B+CDT+ assessed as inhibition of bacterial growth measured after 24 hrs by CLSI based broth dilution method; assay type: functional
Clostridioides difficile [10] = assay: Antibacterial activity against Clostridioides difficile RT293/ST129/A+B+ assessed as inhibition of bacterial growth measured after 24 hrs by CLSI based broth dilution method; assay type: functional
Clostridioides difficile [11] = assay: Antibacterial activity against Clostridioides difficile RT130/ST5/A+B+CDT+ assessed as inhibition of bacterial growth measured after 24 hrs by CLSI based broth dilution method; assay type: functional
[12] = (§2) Toxicity in colitis-induced C57BL/6J mouse infected with Clostridioides difficile ribotype 027 assessed as increase in Klebsiella proportion in gut at 30 mg/kg, po qd pretreated with clindamycin followed by infected with […] and measured on day 20 post treatment by RNA sequencing analysis (reference value: 0%); assay type: organism-based; conditions: in vivo, 480 h, time 20 day
Clostridioides difficile [13] = assay: Antibacterial activity against Clostridioides difficile ribotype 027 infected in colitis induced C57BL/6J mouse assessed as increase in survival rate without recurrence at 30 mg/kg, po qd pretreated with clindamycin followed by […] infection and compound addition measured on day 5; assay type: functional; conditions: time 5.0 day
[14] = Toxicity in colitis-induced C57BL/6J mouse infected with Clostridioides difficile ribotype 027 assessed as effect on gut micro-biome at 30 mg/kg, po qd pretreated with clindamycin followed by infected with […] and measured on day 6 post treatment by RNA sequencing analysis; assay type: organism-based; conditions: in vivo, 144 h, time 6 day
[15] = as §2, with “6” for “20”; assay type: organism-based; conditions: in vivo, 144 h, time 6 day
[16] = Genotoxicity in Salmonella typhimurium TA98 incubated for 90 min in presence of S9 fraction by Ames test; assay type: toxicity, subcellular; conditions: salmonella enterica subsp. enterica serovar typhimurium, s9, 1.5 h
Clostridioides difficile [17] = assay: Antibacterial activity against Clostridioides difficile RT027/ST1/A+B+CDT+ assessed as inhibition of bacterial growth measured after 24 hrs by CLSI based broth dilution method; assay type: functional
Clostridioides difficile [18] = assay: Antibacterial activity against Clostridioides difficile NT/ST67/A+B+CDT+ assessed as inhibition of bacterial growth measured after 24 hrs by CLSI based broth dilution method; assay type: functional
Clostridioides difficile [19] = assay: Antibacterial activity against Clostridioides difficile RT012/ST54/A+B+ assessed as inhibition of bacterial growth measured after 24 hrs by CLSI based broth dilution method; assay type: functional
Clostridioides difficile [20] = assay: Antibacterial activity against Clostridioides difficile RT002/ST8/A+B+ assessed as inhibition of bacterial growth measured after 24 hrs by CLSI based broth dilution method; assay type: functional
[21] = as §2, with “Enterococcus” for “Klebsiella”, “6” for “20”; assay type: organism-based; conditions: in vivo, 144 h, time 6 day
Clostridioides difficile [22] = assay: Antibacterial activity against Clostridioides difficile RT001/ST3/A+B+ assessed as inhibition of bacterial growth measured after 24 hrs by CLSI based broth dilution method; assay type: functional
[23] = Genotoxicity in Salmonella typhimurium TA100 incubated for 90 min in presence of S9 fraction by Ames test; assay type: toxicity, subcellular; conditions: salmonella enterica subsp. enterica serovar typhimurium, s9, 1.5 h
[24] = Toxicity in colitis-induced C57BL/6J mouse infected with Clostridioides difficile ribotype 027 assessed as effect on Firmicutes proportion in gut at 30 mg/kg, po qd pretreated with clindamycin followed by infected with […] and measured on day 6 post treatment by RNA sequencing analysis; assay type: organism-based; conditions: in vivo, 144 h, time 6 day
Enterococcus faecium = assay: Antibacterial activity against Enterococcus faecium ATCC 19434 assessed as inhibition of bacterial growth measured after 24 hrs by CLSI based broth dilution method; assay type: functional
Enterococcus faecalis [25] = assay: Antibacterial activity against Enterococcus faecalis ATCC 29212 assessed as inhibition of bacterial growth measured after 24 hrs by CLSI based broth dilution method; assay type: functional
Clostridioides difficile [26] = assay: Antibacterial activity against Clostridioides difficile RT018/ST17/A+B+ assessed as inhibition of bacterial growth measured after 24 hrs by CLSI based broth dilution method; assay type: functional
Clostridioides difficile [27] = assay: Antibacterial activity against Clostridioides difficile ribotype 027 infected in colitis induced C57BL/6J mouse assessed as survival rate at 30 mg/kg, po qd pretreated with clindamycin followed by […] infection and compound addition measured on day 5; assay type: functional; conditions: ribotype 027, 120 h, time 5 day
Clostridioides difficile [28] = assay: Antibacterial activity against Clostridioides difficile RT014/ST14/A+B+ assessed as inhibition of bacterial growth measured after 24 hrs by CLSI based broth dilution method; assay type: functional
Enterococcus faecalis [29] = assay: Antibacterial activity against Clinical isolate Enterococcus faecalis assessed as inhibition of bacterial growth measured after 24 hrs by CLSI based broth dilution method; assay type: functional
[30] = Genotoxicity in Salmonella typhimurium TA98 incubated for 90 min by Ames test; assay type: toxicity; conditions: salmonella enterica subsp. enterica serovar typhimurium, 1.5 h
Clostridioides difficile [31] = assay: Antibacterial activity against Clostridioides difficile RT015/ST35/A+B+ assessed as inhibition of bacterial growth measured after 24 hrs by CLSI based broth dilution method; assay type: functional
[32] = as §2, with “Escherichia” for “Klebsiella”, “6” for “20”; assay type: organism-based; conditions: in vivo, 144 h, time 6 day
[33] = as §2, with “Enterococcus” for “Klebsiella”; assay type: organism-based; conditions: in vivo, 480 h, time 20 day
[34] = as §2, with “Escherichia” for “Klebsiella”; assay type: organism-based; conditions: in vivo, 480 h, time 20 day
[35] = target: Voltage-gated inwardly rectifying potassium channel KCNH2 (Homo sapiens, UniProt Q12809); assay: Inhibition of hERG expressed in HEK293 cells at 10 uM incubated for 5 mins by whole cell patch clamp assay; assay type: toxicity, cell-based; conditions: hek293, 5 min
Clostridioides difficile [36] = assay: Antibacterial activity against Clostridioides difficile RT017/ST37/A-B+ assessed as inhibition of bacterial growth measured after 24 hrs by CLSI based broth dilution method; assay type: functional
[37] = Genotoxicity in Salmonella typhimurium TA100 incubated for 90 min by Ames test; assay type: toxicity; conditions: salmonella enterica subsp. enterica serovar typhimurium, 1.5 h
Clostridioides difficile [38] = assay: Antibacterial activity against Clostridioides difficile RT078/ST11/A+B+CDT+ assessed as inhibition of bacterial growth measured after 24 hrs by CLSI based broth dilution method; assay type: functional
[39] = Toxicity in colitis-induced C57BL/6J mouse infected with Clostridioides difficile ribotype 027 assessed as effect on Acinetobacter proportion in gut at 30 mg/kg, po qd pretreated with clindamycin followed by infected with […] and measured on day 6 post treatment by RNA sequencing analysis; assay type: organism-based; conditions: in vivo, 144 h, time 6 day
Staphylococcus aureus [40] = assay: as §1, with “as downregulation” for “as reduction in total number”, “of IL-6 levels” for “of bacteria”, “hrs by ELISA assay” for “hrs relative to mupirocin”; assay type: functional, organism-based
Staphylococcus aureus [41] = assay: as §1, with “as downregulation” for “as reduction in total number”, “of IL-1beta levels” for “of bacteria”, “hrs by ELISA assay” for “hrs relative to mupirocin”; assay type: functional, organism-based

Sequence of Voltage-gated inwardly rectifying potassium channel KCNH2 (Q12809 whole entry): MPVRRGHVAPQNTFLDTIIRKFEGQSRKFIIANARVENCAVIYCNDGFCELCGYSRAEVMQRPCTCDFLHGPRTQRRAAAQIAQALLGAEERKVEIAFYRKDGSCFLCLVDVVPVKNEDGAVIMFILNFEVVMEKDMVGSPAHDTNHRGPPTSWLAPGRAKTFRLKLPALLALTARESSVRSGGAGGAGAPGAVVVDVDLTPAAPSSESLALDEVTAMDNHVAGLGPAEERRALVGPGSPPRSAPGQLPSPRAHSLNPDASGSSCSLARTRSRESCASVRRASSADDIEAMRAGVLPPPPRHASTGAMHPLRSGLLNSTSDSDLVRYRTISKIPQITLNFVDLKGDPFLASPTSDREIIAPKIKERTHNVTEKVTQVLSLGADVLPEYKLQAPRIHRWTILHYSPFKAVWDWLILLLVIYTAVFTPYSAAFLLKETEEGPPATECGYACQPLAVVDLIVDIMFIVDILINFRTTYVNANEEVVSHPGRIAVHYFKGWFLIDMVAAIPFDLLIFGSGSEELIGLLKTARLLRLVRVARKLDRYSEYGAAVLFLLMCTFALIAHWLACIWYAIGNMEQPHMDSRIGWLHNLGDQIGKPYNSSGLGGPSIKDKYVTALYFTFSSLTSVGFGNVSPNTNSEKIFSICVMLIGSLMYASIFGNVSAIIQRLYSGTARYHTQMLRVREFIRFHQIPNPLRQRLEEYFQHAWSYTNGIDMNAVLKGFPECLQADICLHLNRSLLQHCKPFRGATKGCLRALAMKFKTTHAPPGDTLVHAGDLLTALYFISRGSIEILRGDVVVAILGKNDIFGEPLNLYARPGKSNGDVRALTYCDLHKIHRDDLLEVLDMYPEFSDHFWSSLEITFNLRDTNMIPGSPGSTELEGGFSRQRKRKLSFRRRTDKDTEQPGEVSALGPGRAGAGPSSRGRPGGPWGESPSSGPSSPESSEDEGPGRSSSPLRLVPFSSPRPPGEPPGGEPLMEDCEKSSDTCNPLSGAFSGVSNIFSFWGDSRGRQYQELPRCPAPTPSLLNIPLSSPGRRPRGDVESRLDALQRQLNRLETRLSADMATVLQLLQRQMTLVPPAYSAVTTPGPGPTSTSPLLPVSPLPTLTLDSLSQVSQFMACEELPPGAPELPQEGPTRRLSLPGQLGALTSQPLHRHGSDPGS

Q: Which MIC (Staphylococcus aureus [1]) does the source give for `C/C=C(\NC(=O)c1csc(-c2csc(-c3ccc4c(n3)-c3csc(n3)[C@H]([C@@H](C)O)NC(=O)c3csc(n3)[C@H](C(C)C)NC(=O)c3csc(n3)/C(=C/C)NC(=O)[C@H]([C@@H](C)O)NC(=O)c3csc-4n3)n2)n1)C(=O)NCCN1CCN(C(C)C)CC1` [listing 1 of 2 here] here?
A: 0.5 µg/mL (≈ 0.403 µM)

Q: And the Activity (Staphylococcus aureus [2])?
A: >=3 log10CFU/ml

Q: What about the MIC50 (Staphylococcus aureus [3]) of the same compound?
A: 2 µg/mL (≈ 1.61 µM)

Q: And the MIC90 (Staphylococcus aureus [3])?
A: 4 µg/mL (≈ 3.22 µM)

Q: And the Peff [4]?
A: Impermeable

Q: What about the MIC (Clostridioides difficile [5]) of the same compound?
A: 0.5 µg/mL (≈ 0.403 µM)

Q: What about the “fold change (FC)” value (Staphylococcus aureus [6]) of the same compound?
A: 1000

Q: And the Peff [7]?
A: Impermeable

Q: What about the solubility kinetic at 2 h [8] of the same compound?
A: 150 µg/mL (≈ 121 µM)

Q: What does the source list for `C/C=C(\NC(=O)c1csc(-c2csc(-c3ccc4c(n3)-c3csc(n3)[C@H]([C@@H](C)O)NC(=O)c3csc(n3)[C@H](C(C)C)NC(=O)c3csc(n3)/C(=C/C)NC(=O)[C@H]([C@@H](C)O)NC(=O)c3csc-4n3)n2)n1)C(=O)NCCn1c([N+](=O)[O-])cnc1C`?
A: MIC (Staphylococcus aureus [1]): 0.25 µg/mL (≈ 0.202 µM); MIC (Clostridioides difficile [9]): 0.125 µg/mL (≈ 0.101 µM); MIC (Clostridioides difficile [10]): 0.125 µg/mL (≈ 0.101 µM); MIC (Clostridioides difficile [11]): 0.125 µg/mL (≈ 0.101 µM); Activity [12]: 0.15%; Activity (Clostridioides difficile [13]): Active; Activity [14]: Non-Toxic; Activity [15]: 0.94%; Activity [16]: Non-Toxic; MIC (Clostridioides difficile [17]): 0.125 µg/mL (≈ 0.101 µM); MIC (Clostridioides difficile [18]): 0.125 µg/mL (≈ 0.101 µM); MIC (Clostridioides difficile [19]): 0.125 µg/mL (≈ 0.101 µM); MIC (Clostridioides difficile [20]): 0.125 µg/mL (≈ 0.101 µM); Activity [21]: 0.52%; MIC (Clostridioides difficile [22]): 0.125 µg/mL (≈ 0.101 µM); Activity [23]: Non-Toxic; Activity [24]: Non-Toxic; MIC (Enterococcus faecium): 0.25 µg/mL (≈ 0.202 µM); MIC (Enterococcus faecalis [25]): 0.25 µg/mL (≈ 0.202 µM); MIC (Clostridioides difficile [5]): 0.125 µg/mL (≈ 0.101 µM); MIC (Clostridioides difficile [26]): 0.125 µg/mL (≈ 0.101 µM); survival at 30 mg/kg (Clostridioides difficile [27]): 80%; MIC (Clostridioides difficile [28]): 0.125 µg/mL (≈ 0.101 µM); MIC (Enterococcus faecalis [29]): 0.25 µg/mL (≈ 0.202 µM); Activity [30]: Non-Toxic; MIC (Clostridioides difficile [31]): 0.125 µg/mL (≈ 0.101 µM); Activity [32]: 2.88%; Activity [33]: 1.62%; Activity [34]: 0.93%; inhibition (INH) [35]: Active; MIC (Clostridioides difficile [36]): 0.125 µg/mL (≈ 0.101 µM); Activity [37]: Non-Toxic; MIC (Clostridioides difficile [38]): 0.125 µg/mL (≈ 0.101 µM); Activity [39]: Non-Toxic

Q: Which Activity (Staphylococcus aureus [40]) does the source give for `C/C=C(\NC(=O)c1csc(-c2csc(-c3ccc4c(n3)-c3csc(n3)[C@H]([C@@H](C)O)NC(=O)c3csc(n3)[C@H](C(C)C)NC(=O)c3csc(n3)/C(=C/C)NC(=O)[C@H]([C@@H](C)O)NC(=O)c3csc-4n3)n2)n1)C(=O)NCCN1CCN(C(C)C)CC1` [listing 2 of 2 here] here?
A: Active

Q: And the Activity (Staphylococcus aureus [41])?
A: Active
